The record followed here is ChEMBL document CHEMBL1201862, “PubChem BioAssay data set” (2004).

What is called GI50 is the concentration giving 50% growth inhibition.

What all share (test): DTP human tumour cell line panel, 48 h
Experiment [1] concerns 786-0.
The subject of experiment [2] is ACHN.
Experiment [3] concerns DU-145.
In experiment [4] the test system is EKVX.
For experiment [5], the system named is HT-29.
Experiment [6] relates to Hs-578T.
The subject of experiment [7] is KM12.
Experiment [8] has as its system LOX IMVI.
Experiment [9] has as its system M14.
In experiment [10] the test system is MDA-MB-231.
Experiment [11] concerns MDA-N.
Experiment [12] relates to NCI-H226.
The test system of experiment [13] is NCI-H522.
Experiment [14] concerns OVCAR-3.
The test system of experiment [15] is OVCAR-4.
For experiment [16], the system named is RPMI-8226.
The subject of experiment [17] is SK-MEL-28.
The subject of experiment [18] is SK-OV-3.
Experiment [19] deals with U-251.
In experiment [20] the test system is UO-31.

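Five concentrations, 48 hours, 96-well plates. Here, GI50 denotes the concentration required for 50% inhibition of growth.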 Active and inactive are the calls of the source. No stated cut-off is given here; in the data, active = GI50 up to about 1.1 µM and inactive = higher.

For `CC(C)(C)[Si](C)(C)OCC1C=CC(n2cnc3c(N)ncnc32)O1` (stereo not given), the GI50 in experiment [1] was 61.2 µM (inactive); in experiment [2], > 100 µM (inactive); in experiment [3], 64.3 µM (inactive); in experiment [4], > 59.8 µM (inactive); in experiment [5], 53.5 µM (inactive); in experiment [6], 47.2 µM (inactive). The GI50 in experiment [7] is 59.2 µM (inactive); in experiment [8], 23 µM (inactive); in experiment [9] it was 23.8 µM (inactive); in experiment [10], 44.2 µM (inactive); in experiment [11] it was 26.6 µM (inactive); in experiment [12], 19.2 µM (inactive). In addition, the GI50 in [13] is 33.2 µM (inactive); in [14], 24.1 µM (inactive); in experiment [15], 32.9 µM (inactive); in [16] it was 16.7 µM (inactive); in experiment [17] it was > 62.1 µM (inactive); in experiment [18], 81.1 µM (inactive). The GI50 in experiment [19] is 32.1 µM (inactive); in [20], 52 µM (inactive).

Consider `C[C@]12CC[C@H]3[C@@H](CC[C@]4(O)C[C@@H](O)CC[C@]34CO)[C@@]1(O)CC[C@@H]2C1=CC(=O)OC1` [STROPHANTHIDOL], for which the GI50 is 1.42 µM (inactive) in [1]; 0.467 µM (active) in experiment [2]; 1.36 µM (inactive) in experiment [3]; 1.39 µM (inactive) in [4]; 1.94 µM (inactive) in experiment [5]; 1.46 µM (inactive) in experiment [6]. The GI50 in [7] was 3.66 µM (inactive); in experiment [8] it was 2.01 µM (inactive); in experiment [9], 3.01 µM (inactive); in experiment [10], 8.45 µM (inactive); in experiment [11], 2.99 µM (inactive); in [12] it was 4.03 µM (inactive). For the same compound, the GI50 was 0.447 µM (active) in [13]; 0.993 µM (active) in [14]; 1.12 µM (inactive) in [15]; 1.95 µM (inactive) in experiment [16]; 4.78 µM (inactive) in [17]; 2.64 µM (inactive) in [18]. Also, the GI50 was 2.7 µM (inactive) in experiment [19] and 1.9 µM (inactive) in experiment [20].

In the case of `Nc1ccc(C(=O)O)cc1.Nc1nc(N)c2nc[nH]c2n1`, the GI50 in experiment [1] is 26.7 µM (inactive); in [2], 17 µM (inactive); in experiment [3] it was 13.8 µM (inactive); in experiment [4] it was 14.5 µM (inactive); in experiment [5], 20.4 µM (inactive); in experiment [6], > 100 µM (inactive). The GI50 in experiment [7] was 22.3 µM (inactive); in [8], 24.7 µM (inactive); in experiment [9], 10.7 µM (inactive); in experiment [10], 45.4 µM (inactive); in experiment [11], 13.9 µM (inactive); in [12] it was > 100 µM (inactive). Also, the GI50 in experiment [13] is 17.8 µM (inactive); in experiment [14] it was 19.1 µM (inactive); in [15], 26.4 µM (inactive); in experiment [16] it was 12.1 µM (inactive); in experiment [17], 33 µM (inactive); in experiment [18], 34.8 µM (inactive). Moreover, the values for the GI50 in experiment [19] and in experiment [20] were 43.9 µM (inactive) and 11.3 µM (inactive), respectively.

For the compound `CCN(CC)C(=O)CCCCCCCCC1CO1` (stereo not given), the GI50 in experiment [1], in experiment [2], in [3], in experiment [4], in experiment [5] and in experiment [6] was > 100 µM (inactive) throughout. Further, the GI50 is > 100 µM (inactive) in experiment [7]; 63.4 µM (inactive) in experiment [8]; > 100 µM (inactive) in experiment [9]; > 100 µM (inactive) in experiment [10]; > 100 µM (inactive) in experiment [11]; > 100 µM (inactive) in experiment [12]. In addition, the GI50 in experiment [13], in experiment [14], in experiment [15], in [16], in [17] and in [18] was > 100 µM (inactive) in each case. Further, the GI50 in experiment [19] and in experiment [20] was > 100 µM (inactive) in each case.

As for `O=C(O)[C@@]1(Cc2ccc(O)cc2)C[C@@H]2Cc3ccccc3N2N1`, the GI50 in [1], in [2], in experiment [3], in experiment [4], in experiment [5] and in [6] was > 100 µM (inactive) throughout. The GI50 in experiment [7], in experiment [8], in [9], in experiment [10], in [11] and in experiment [12] was > 100 µM (inactive) in each case. In addition, the GI50 in experiment [13], in [14], in experiment [15], in experiment [16], in experiment [17] and in experiment [18] was > 100 µM (inactive) each time. In addition, the GI50 in experiment [19] and in experiment [20] was > 100 µM (inactive) throughout.

Turning to `O=C(O)c1cncc(C(=O)O)c1`, the GI50 in [1], in experiment [2], in [3], in experiment [4], in experiment [5] and in experiment [6] was > 100 µM (inactive) in each case. The GI50 in [7], in experiment [8], in experiment [9], in experiment [10], in experiment [11] and in [12] was > 100 µM (inactive) in each case. The GI50 in [13], in experiment [14], in experiment [15], in [16], in experiment [17] and in [18] was > 100 µM (inactive) throughout. Besides, the GI50 in [19] and in experiment [20] was > 100 µM (inactive) throughout.

In the case of `c1ccc(C2=Nc3cccc4cccc(c34)N2)cc1`, the GI50 in experiment [1] is 42.8 µM (inactive); in experiment [2], 26.2 µM (inactive); in experiment [3], > 90.2 µM (inactive); in experiment [4], > 51.1 µM (inactive); in experiment [5] it was 43.5 µM (inactive); in experiment [6], 58.1 µM (inactive). The GI50 in experiment [7] was 28.3 µM (inactive); in [8], 23.5 µM (inactive); in experiment [9], 44.7 µM (inactive); in experiment [10], 19.7 µM (inactive); in [11], 45.3 µM (inactive); in [12] it was > 78.3 µM (inactive). The GI50 was 12.2 µM (inactive) in [13]; 23.7 µM (inactive) in experiment [14]; 18.7 µM (inactive) in experiment [15]; 22.6 µM (inactive) in experiment [16]; > 79.1 µM (inactive) in experiment [17]; > 100 µM (inactive) in [18]. Further, the GI50 is > 100 µM (inactive) in [19] and 21.3 µM (inactive) in experiment [20].
